Tests used:
oral bioavailability = details: in vivo
[1] = Example 1A: pharmacokinetics of subcutaneous (SC) and sublingual (SL) dosing in dogs; format: in vivo; details: male, beagle, dog, 1 mg/kg, tosylate salt, plasma; for AUC: 0-24 hours
Procedure: SC Administration: Six male beagle dogs between 2 and 5 years of age are randomized in two groups of three dogs each. […] Dogs in group 2 are administered the Compound of Formula II at a dose of 1 mg/kg (free base equivalent) in a 0.5% methylcellulose/distilled water vehicle. Administration is subcutaneous in the intrascapular region via a 22 or 23 gauge needle. Whole blood samples are collected via the dog's cephalic vein pre-dose, and at post-dose time-points 5, 15 and 30 minutes, 1, 2, 4, 6, 8 and 24 hours. Following a minimum 7-day washout period, the dogs are transferred to the sublingual portion of the study.
Dogs in group 2 are administered the Compound of Formula II at a dose of 1 mg/kg (free base equivalent) in a 0.5% methylcellulose/distilled water vehicle. The animals are anesthetized prior to administration of the dose using propofol (6 mg/kg) and anesthesia is maintained for 30 minutes using 3-4.5% isoflurane. Administration is sublingual and the dosage is applied for 30 minutes, then wiped off using unwoven gauze. Whole blood samples are collected via the dog's cephalic vein pre-dose, and at post-dose time-points 5, 15 and 30 minutes, 1, 2, 4, 6, 8, 24, 36 and 48 hours.
All blood samples are processed to plasma and analyzed for drug concentrations using liquid chromatography-tandem mass spectrometry (LC-MS/MS). Area under the curve (AUC) of parent and metabolites based on plasma versus time data are calculated using Prism 5.04 software (GraphPad Software, Inc.).

[2] = Example 1B: SC and SL pharmacokinetics in dogs with metabolite analysis; format: in vivo; details: male, beagle, dog, 1 mg/kg, plasma, analyte parent; for AUC: 0-24 hours
Procedure: SC Administration: Six male beagle dogs between 2 and 5 years of age are randomized in two groups of three dogs each. […] Administration is subcutaneous in the intrascapular region via a 22 or 23 gauge needle. […] Following a minimum 7-day washout period, the dogs are transferred to the sublingual portion of the study. SL Administration: […] The animals are anesthetized prior to administration of the dose using propofol (6 mg/kg) and anesthesia is maintained for 30 minutes using 3-4.5% isoflurane. Administration is sublingual and the dosage is applied for 30 minutes, then wiped off using unwoven gauze. […] All blood samples are processed to plasma and analyzed for drug concentrations using liquid chromatography-tandem mass spectrometry (LC-MS/MS). Area under the curve (AUC) of parent and metabolites based on plasma versus time data are calculated using Prism 5.04 software (GraphPad Software, Inc.). A second study is performed substantially as described for Example 1A, except that plasma samples are analyzed for the parent (administered) compounds, as well as for the major known metabolites. […] The results are summarized in Table 1B below (AUC is shown for 0-24 hours): […]

[3] = Example 2: pharmacokinetics of oral dosing in dogs; format: in vivo; details: both sexes, beagle, dog, plasma, oral capsules, tosylate salt; for AUC: 0-24 hours
Procedure: For control, the dogs are administered empty capsules. For the Compound of Formula I, the dogs are administered normal-release oral capsules. Blood samples are obtained at 0.25 hours, 0.5 hours, 1 hour, 4 hours, 8 hour and 24 hours. […] Cmax, Tmax and area-under-the-curve (AUC, 0-24 hours) are calculated using Phoenix WinNonlin software.

[4] = Example 3: pharmacokinetics of SC and IV dosing in monkeys; format: in vivo; details: cynomolgus monkey, 0.5 mg/kg, plasma; for AUC: read-out: AUC, Parent Compound; for Cmax: read-out: Cmax, Parent Compound; for Tmax: read-out: Tmax, Parent Compound
Procedure: Six Cynomolgus monkeys are divided into two groups for IV and SC dosing with the Compound of Formula I. The animals are dosed in a fasting state. Blood samples are collected pre-dose, and at 5 minutes, 15 minutes, 1, 2, 4, 6, 8, 24, 36 and 48 hours post-dose. All blood samples are processed to plasma and later analyzed by liquid chromatography-tandem mass spectrometry. […] PK parameters are calculated using PK Solutions 2.0 software (Summit Research Services, Colorado, US).

[5] = molecular target: H1 histaminergic receptors (Homo sapiens, UniProt P35367); details: cited from earlier work
5-HT2C receptors = molecular target: T1, 5-HT2C receptors (Homo sapiens, UniProt P28335); details: cited from earlier work
T1 sequence (P28335 33-458): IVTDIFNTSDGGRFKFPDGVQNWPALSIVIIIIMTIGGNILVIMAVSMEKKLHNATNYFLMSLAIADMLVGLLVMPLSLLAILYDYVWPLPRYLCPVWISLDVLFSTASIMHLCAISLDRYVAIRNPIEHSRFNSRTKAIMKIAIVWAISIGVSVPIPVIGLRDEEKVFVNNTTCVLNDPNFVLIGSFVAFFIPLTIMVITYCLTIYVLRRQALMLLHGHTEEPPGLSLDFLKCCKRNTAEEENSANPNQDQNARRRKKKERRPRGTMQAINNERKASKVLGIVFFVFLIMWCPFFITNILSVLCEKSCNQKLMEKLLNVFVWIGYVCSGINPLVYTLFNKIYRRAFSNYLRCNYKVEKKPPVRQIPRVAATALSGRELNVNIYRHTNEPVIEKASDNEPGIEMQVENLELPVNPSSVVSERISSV

muscarinic receptors = details: cited from earlier work

Sequence of H1 histaminergic receptors (P35367 whole entry): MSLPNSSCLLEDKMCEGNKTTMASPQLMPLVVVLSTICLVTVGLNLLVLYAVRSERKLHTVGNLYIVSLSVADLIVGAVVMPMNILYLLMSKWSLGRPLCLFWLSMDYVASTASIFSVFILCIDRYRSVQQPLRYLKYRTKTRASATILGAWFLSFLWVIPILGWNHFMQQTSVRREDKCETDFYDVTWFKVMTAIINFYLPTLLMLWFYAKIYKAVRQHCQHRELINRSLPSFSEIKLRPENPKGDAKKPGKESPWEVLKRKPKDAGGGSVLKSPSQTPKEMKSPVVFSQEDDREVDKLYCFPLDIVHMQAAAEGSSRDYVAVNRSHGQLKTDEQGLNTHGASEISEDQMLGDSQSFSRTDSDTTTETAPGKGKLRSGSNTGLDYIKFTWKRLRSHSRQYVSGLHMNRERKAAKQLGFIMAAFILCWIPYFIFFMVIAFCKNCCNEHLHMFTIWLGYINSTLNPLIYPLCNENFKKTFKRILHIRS

CN1CCN2c3c(cccc31)[C@@H]1CN(CCCC(=O)c3ccc(F)cc3)CC[C@@H]12 [Compound of Formula I, 1-(4-fluoro-phenyl)-4-((6bR,10aS)-3-methyl-2,3,6b,9,10,10a-hexahydro-1H,7H-pyrido[3′,4′:4,5]pyrrolo[1,2,3-de]quinoxalin-8-yl)-butan-1-one]
bioavailability (oral bioavailability): ≤ 5% | Cmax ([1]; SC): 110 ng/mL | Tmax ([1]; SC): 1 h | AUC ([1]; SC): 813 ng·h/mL | Cmax ([1]; SL): 259 ng/mL | Tmax ([1]; SL): 1 h | AUC ([1]; SL): 734 ng·h/mL | AUC ([2]; SC): 560 ng·h/mL | AUC ([2]; SL): 507 ng·h/mL | Cmax ([2]; SC): 76 ng/mL | Tmax ([2]; SC): 1 h | Cmax ([2]; SL): 179 ng/mL | Tmax ([2]; SL): 1 h | Cmax ([3]; 2.5 mg/kg): 5.51 ng/mL | Tmax ([3]; 2.5 mg/kg): 0.469 h | AUC ([3]; 2.5 mg/kg): 40 ng·h/mL | Cmax ([3]; 5 mg/kg): 7.72 ng/mL | Tmax ([3]; 5 mg/kg): 0.875 h | AUC ([3]; 5 mg/kg): 52.5 ng·h/mL | Cmax ([3]; 10 mg/kg): 29 ng/mL | Tmax ([3]; 10 mg/kg): 0.813 h | AUC ([3]; 10 mg/kg): 142 ng·h/mL | Cmax ([3]; 15 mg/kg): 44.5 ng/mL | Tmax ([3]; 15 mg/kg): 1.63 h | AUC ([3]; 15 mg/kg): 248 ng·h/mL | AUC ([4]; Cynomolgus, SC): 220 ng·h/mL | Cmax ([4]; Cynomolgus, SC): 23 ng/mL | Tmax ([4]; Cynomolgus, SC): 2 h | bioavailability ([4]; Cynomolgus, subcutaneous, SC administration, read-out: bioavailability (comparison of IV to SC pharmacokinetics)): ~74% | AUC ([4]; IV): 297 ng·h/mL | Cmax ([4]; IV): 94 ng/mL | Tmax ([4]; IV): 0.083 h | binding to H1 histaminergic receptors [5]: negligible binding | binding to 5-HT2C receptors (5-HT2C receptors): negligible binding | binding to muscarinic receptors (muscarinic receptors): negligible binding

[2H]C1([2H])CN2c3c(cccc3N1C)[C@@H]1CN(CCCC(=O)c3ccc(F)cc3)CC[C@@H]12 [Compound of Formula II, 1-(4-fluoro-phenyl)-4-((6bR,10aS)-2,2-d2-3-methyl-2,3,6b,9,10,10a-hexahydro-1H,7H-pyrido[3′,4′:4,5]pyrrolo[1,2,3-de]quinoxalin-8-yl)-butan-1-one]
Cmax ([1]; SC): 79 ng/mL | Tmax ([1]; SC): 1 h | AUC ([1]; SC): 785 ng·h/mL | Cmax ([1]; SL): 562 ng/mL | Tmax ([1]; SL): 1 h | AUC ([1]; SL): 1260 ng·h/mL | AUC ([2]; SC): 785 ng·h/mL | AUC ([2]; SL): 1260 ng·h/mL | Cmax ([2]; SC): 79 ng/mL | Tmax ([2]; SC): 1 h | Cmax ([2]; SL): 562 ng/mL | Tmax ([2]; SL): 1 h

Source: patent publication US12144808B2, “Compositions and methods” (INTRA-CELLULAR THERAPIES, INC., priority 2018, dated 2024)
